Measurements from ChEMBL document CHEMBL1141006, “2-Arylimino-5,6-dihydro-4H-1,3-thiazines as a new class of cannabinoid receptor agonists. Part 3: Synthesis and activity of isosteric analogs” (Bioorg Med Chem Lett, 2008).

Legend:
[1] = target: Cannabinoid receptor 2 (Homo sapiens, UniProt P34972); test: Binding affinity to human CB2 receptor
[2] = target: T1, Cannabinoid receptor 1 (Homo sapiens, UniProt P21554); test: Binding affinity to human CB1 receptor
[3] = tested on: Mus musculus; test: Analgesic activity against po dosed ddY mouse assessed as time spent motionless on the ring for 5 mins by ring catalepsy test; format: functional
[4] = tested on: Mus musculus; test: Analgesic activity against formalin-induced acute pain in po dosed ICR mouse assessed as paw licking for 0 to 5 mins; format: functional
[5] = AUC in rat at 3 mg/kg, po; format: ADME, organism-based; design: dose 3 mg/kg, route oral; details: plasma
[6] = target: T1, Cannabinoid receptor 1; test: Binding affinity to human CB1 receptor expressed in CHO cells assessed as inhibition of cAMP accumulation; format: functional, cell-based
[7] = species: Mus musculus; test: Ratio of ED50 for analgesic activity in ddY mouse by ring-catalepsy test to ED50 for analgesic activity against formalin-induced inflammatory pain in ICR mouse; format: functional
[8] = Oral bioavailability in rat at 3 mg/kg; format: ADME, organism-based; details: in vivo
[9] = tested on: Mus musculus; test: Analgesic activity against formalin-induced inflammatory pain in po dosed ICR mouse assessed as paw licking for 10 to 30 mins; format: functional
[10] = Cmax in rat at 2 mg/kg, iv and 3 mg/kg, po; format: ADME, organism-based; details: in vivo
[11] = Total clearance in rat at 2 mg/kg, iv and 3 mg/kg, po; format: ADME, organism-based; details: in vivo
[12] = Half life in rat at 2 mg/kg, iv and 3 mg/kg, po; format: ADME, organism-based; details: in vivo
[13] = target: Cannabinoid receptor 1 (Mus musculus, UniProt P47746); test: Binding affinity to mouse CB1 receptor
Sequence of Cannabinoid receptor 1 (Mus musculus, UniProt P47746) (P47746 whole entry): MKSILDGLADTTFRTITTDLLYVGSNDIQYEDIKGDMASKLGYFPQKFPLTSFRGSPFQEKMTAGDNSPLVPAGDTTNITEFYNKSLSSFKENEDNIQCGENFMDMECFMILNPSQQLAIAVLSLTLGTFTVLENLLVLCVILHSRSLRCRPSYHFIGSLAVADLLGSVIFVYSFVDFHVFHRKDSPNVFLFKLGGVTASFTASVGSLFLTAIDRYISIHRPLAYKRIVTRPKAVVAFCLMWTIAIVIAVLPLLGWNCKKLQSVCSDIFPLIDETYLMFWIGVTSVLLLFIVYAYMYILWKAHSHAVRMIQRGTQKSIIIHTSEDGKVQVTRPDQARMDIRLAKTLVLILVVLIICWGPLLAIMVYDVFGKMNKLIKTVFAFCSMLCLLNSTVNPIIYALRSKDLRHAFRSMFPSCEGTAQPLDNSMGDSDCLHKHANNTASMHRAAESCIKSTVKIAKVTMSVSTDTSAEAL

T1 sequence (P21554 whole entry): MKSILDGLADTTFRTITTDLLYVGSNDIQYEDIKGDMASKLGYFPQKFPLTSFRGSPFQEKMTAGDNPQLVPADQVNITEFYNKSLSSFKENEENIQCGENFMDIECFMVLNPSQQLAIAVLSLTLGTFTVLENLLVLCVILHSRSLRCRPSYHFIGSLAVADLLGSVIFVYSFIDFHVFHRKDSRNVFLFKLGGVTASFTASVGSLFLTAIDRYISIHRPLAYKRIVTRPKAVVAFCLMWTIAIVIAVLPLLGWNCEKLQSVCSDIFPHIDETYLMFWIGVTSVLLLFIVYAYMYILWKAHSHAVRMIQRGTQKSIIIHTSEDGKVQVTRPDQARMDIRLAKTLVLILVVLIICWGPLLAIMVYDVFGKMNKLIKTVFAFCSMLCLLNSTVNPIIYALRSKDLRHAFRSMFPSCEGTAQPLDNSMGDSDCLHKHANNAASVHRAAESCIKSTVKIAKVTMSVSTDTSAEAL
Sequence of Cannabinoid receptor 2 (P34972 whole entry): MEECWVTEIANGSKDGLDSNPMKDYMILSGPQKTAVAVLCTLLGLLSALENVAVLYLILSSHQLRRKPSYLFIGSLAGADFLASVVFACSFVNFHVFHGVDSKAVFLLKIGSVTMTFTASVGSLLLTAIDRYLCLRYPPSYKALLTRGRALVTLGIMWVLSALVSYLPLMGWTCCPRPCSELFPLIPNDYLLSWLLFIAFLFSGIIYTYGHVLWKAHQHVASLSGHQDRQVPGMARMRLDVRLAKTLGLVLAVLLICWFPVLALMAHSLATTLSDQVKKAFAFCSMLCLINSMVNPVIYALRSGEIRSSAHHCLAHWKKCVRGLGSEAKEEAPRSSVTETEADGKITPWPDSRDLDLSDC

SMILES	Ki [1] [nM]	Ki [2] [nM]	further results
CSC(=S)N1CC2(CCCCC2)CO/C1=N\c1cccc2c1CCCC2	1	14	–
CSC(=S)N1CC2(CCCCC2)CO/C1=N\c1ccc(N(C)C)c2ccccc12	6.6	4.9	–
CCC(CC)(CC)c1cc(/N=C2\OCC3(CCCCC3)CN2C(=S)SC)on1	1	1	–
CSC(=O)N1CC2(CCCCC2)CO/C1=N\c1cccc2ccccc12	5.8	31	–
COc1ccccc1/N=C1\OCC2(CCCCC2)CN1C(=S)SC	0.9	59	–
CSC(=S)N1CC2(CCCCC2)CO/C1=N\c1ccccc1	11	515	–
CSC(=O)N1CC2(CCCCC2)CS/C1=N\c1cccc2ccccc12	1.5	49	–
CSC(=S)N1CC2(CCCCC2)CS/C1=N\c1cccc2ccccc12	–	–	ED50 [3]: 19.2 mg/kg; ED50 [4]: 1.5 mg/kg; AUC [5]: 1390 ng·h/mL; IC50 [6]: 10 nM; Ratio ED50 [7]: 19.2; bioavailability [8]: 80%; ED50 [9]: 1 mg/kg; Cmax [10]: 160 ng/mL
CSC(=S)N1CC2(CCCCC2)CO/C1=N\c1cccc2nonc12	6.8	152	–
CSC(=S)N1CC2(CCCCC2)CO/C1=N\c1ccc(F)c2ccccc12	0.8	4.9	–
CSC(=S)N1CC2(CCCCC2)CO/C1=N\c1cc(C(C)(C)C)on1	4.7	17	–
CSC(=S)N1CC2(CCCCC2)CO/C1=N\c1ccc(C#N)c2ccccc12	1.8	9.2	–
CSC(=S)N1CC2(CCCCC2)CO/C1=N\c1cccc2ccccc12	0.9	9.3	–
CSC(=S)N1CC2(CCCCC2)CO/C1=N\c1ccc(Cl)c2c1CCCC2	5.8	76	–
CSC(=S)N1CC2(CCCCC2)CO/C1=N\c1nc(C(C)(C)C)cs1	1	1	–
CSC(=S)N1CC2(CCCCC2)CO/C1=N\c1cc(C(C)(C)C)no1	1	0.9	–
CSC(=O)N1CC2(CCCCC2)CN/C1=N\c1cccc2ccccc12	155	624	–
CSC(=S)N1CC2(CCCCC2)CO/C1=N\c1ccc(Cl)c2ccccc12	0.9	3.4	ED50 [3]: 25.6 mg/kg; ED50 [4]: 1.9 mg/kg; AUC [5]: 1210 ng·h/mL; clearance [11]: 14.7 mL/min/kg; IC50 [6]: 8 nM; half-life [12]: 2.2 h; Ratio ED50 [7]: 40; bioavailability [8]: 35%; ED50 [9]: 0.64 mg/kg; Ki [13]: 0.7 nM; Cmax [10]: 280 ng/mL
CSC(=S)N1CC2(CCCCC2)CO/C1=N\c1ccc([N+](=O)[O-])c2ccccc12	2.4	14	–
CSC(=S)N1CC2(CCCCC2)CO/C1=N\c1ccc(C#N)c2c1CCCC2	1.9	101	–
